According to patent publication US7998682B2, “Method for assessing atherosclerosis by measuring expression of FOS or DUSP1 in monocytes” (The United States of America as represented by the …, priority 2004, dated 2011):

Columns and labels:
THP1 cells = experiment: Monocyte adhesion of PMA-stimulated THP1 cells to plastic substratum; type: cell-based, human
Experimental: (§1) FIGS. 3A-3B are digital images and graphs showing the functional effects of statin and FOS siRNA inhibition on monocyte activation by PMA. FIG. 3A is a bar graph and a digital image wherein THP1 cells were pretreated with simvastatin and/or mevalonate for 20 hours prior to stimulation with 2 nM PMA. Cell adhesion was determined 4 hours after PMA stimulation; cumulative MCP-1 release into medium was assayed 24 hours after PMA stimulation. […] P values for the difference in cell adhesion and MCP-1 release after statin treatment were 0.004 and 0.04, respectively. FIG. 3B is a bar graph and a digital image wherein THP1 cells were stimulated with 2 nM PMA 30 minutes after siRNA transfection for 4 hours. Control (−) cells were mock transfected without siRNA as a transfection control. […]
(§2) Monocyte function: For pretreatment experiments, cells were incubated with 10 μM simvastatin and/or 1 mM mevalonate for 20 hours prior to stimulation with phorbol 12-myristate 13-acetate (PMA, Sigma, St. Louis, Mo.). Cell adhesion was determined by gently washing off the nonadherent cells twice and pooling them. […] Viable nonadherent and adherent cells were counted using Trypan Blue dye. Cumulative MCP-1 release into the medium was determined using the MCP-1 immunoassay kit (R& D Systems, Minneapolis, Minn.) after 24 hours PMA stimulation.

MCP-1 = experiment: Cumulative MCP-1 release into medium by PMA-stimulated THP1 cells (immunoassay); type: cell-based, human
Experimental: as §1, §2

FOS protein = FOS protein level by Western blot in PMA-stimulated THP1 cells; type: cell-based, human; settings: 1 mM mevalonate added with simvastatin, 20 hours before PMA
FOS = experiment: RT-PCR of FOS in human monocytic cell lines stimulated with PMA; type: cell-based; settings: five human monocytic cell lines, 20 nM PMA
Description: FIGS. 2A-2D are digital images and graphs showing expression of FOS in human carotid plaque macrophages and in activated human monocytic cells and ApoE KO mouse splenocytes. FIG. 2A is a digital image of fresh frozen sections of human carotid artery plaques stained with hematoxylin and eosin (H&E), negative control immunoglobulin (Control Ig) and antibodies against CD14 or FOS. CD14+ staining of macrophages colocalizes with FOS immunoreactivity (25× magnification). Note that the CD14 staining gives a more diffuse appearance consistent with cell surface plasma membrance staining while the FOS pattern is more punctate consistent with nuclear localization. For the digital image shown as FIG. 2B, from four patients, the corresponding mononuclear cell (MNC), circulating monocyte (Mono) and carotid plaque purified macrophage (Mac) preparations were used for quantitative RT-PCR. The normalized expression levels shown were obtained as described in FIG. 1A. Note the progressively higher pattern of candidate gene expression associated with increasing concentration of monocytes and activation into macrophages. […] Values expressed as mean±SE, P=0.04. […]
Quantitative real-time RT-PCR: mRNA from lystates (10^5 cells) were purified by binding to poly(dT) magnetic beads (Dynal Biotech Inc. Brown Deer, Wis.) and reverse transcribed using Superscript II (Invitrogen, Carlsbad, Calif.). […]

DUSP1 = experiment: RT-PCR of DUSP1 in human monocytic cell lines stimulated with PMA; type: cell-based; settings: five human monocytic cell lines, 20 nM PMA
[1] = 1 mM mevalonate in medium with simvastatin, 20 hours before PMA

SMILES: CC(O)(CCO)CC(=O)O (stereo not shown) [mevalonate]
- effect on statin-induced reduction in monocyte adhesion (THP1 cells; [1]): specifically reversed
- effect on statin-induced reduction in MCP-1 release (MCP-1; [1]): specifically reversed
- effect on statin-induced reduction in FOS protein (FOS protein): reversed

SMILES: CCC(C)(C)C(=O)O[C@H]1C[C@@H](C)C=C2C=C[C@H](C)[C@H](CC[C@@H]3C[C@@H](O)CC(=O)O3)[C@H]21 [statins, simvastatin]
- reduction in monocyte adhesion to plastic substratum compared to control (THP1 cells; 10 μM simvastatin pretreatment 20 hours, 2 nM PMA, 4 hours after PMA, P=0.004): approximately 70%
- reduction in MCP-1 release into medium compared to control (MCP-1; 10 μM simvastatin pretreatment 20 hours, 2 nM PMA, 24 hours after PMA, P=0.04): approximately 70%

SMILES: CCCCCCCCCCCCCC(=O)O[C@@H]1[C@@H](C)[C@@]2(O)[C@@H](C=C(CO)C[C@]3(O)C(=O)C(C)=C[C@@H]23)[C@@H]2C(C)(C)[C@]12OC(C)=O [PMA, phorbol 12-myristate 13-acetate]
- FOS expression after PMA stimulation (FOS): uniformly induced in all five cell lines
- DUSP1 expression after PMA stimulation (DUSP1): repressed in two of the cell lines
